One may read the EC50 as the midpoint of the concentration-response curve.

“Also recorded” adds a separate entry of the source. Like-named read-outs stand apart in the source and are kept apart here. Ends that are not written are not given here. Peptide text beside a SMILES is read from it. QP = not defined here

Results on 14 compounds are retold here after US5792466A, “Mimetic insect kinin analogs for insect control” (The United States of America, as represented by the …, priority 1996, dated 1998).

Data set [1] concerns isolated Malpighian tubules of the cricket Acheta domesticus. As to conditions: cited from earlier work; for EC50 / Cricket Malpighian tubule fluid secretion Maximum response (%): naturally occurring achetakinins; for EC50: read-out: Cricket (Acheta domesticus) Malpighian tubule fluid secretion EC50; for Cricket Malpighian tubule fluid secretion Maximum response (%): literature reference (6).

Data set [2] has as its system isolated Leucophaea maderae cockroach hindgut. The settings on record: cited from earlier work; for Cockroach (Leucophaea maderae) hindgut contraction threshold (pM) ± (S.D.): naturally occurring achetakinins, Holman et al., 1990, reference (12); for potency in hindgut myotropic assay relative to parent or natural insect kinins: literature (Holman et al., 1987; Nachman et al., 1994).

The subject of data set [3] is angiotensin converting enzyme (ACE) from the housefly Musca domestica. As to conditions: cited from earlier work.
The test system of data set [4] is isolated Malpighian tubules of the cricket Acheta domesticus. The data set can be described thus: Cricket Malpighian tubule secretion bioassay. The settings on record: for Cricket Malpighian tubule fluid secretion Maximum response (%): percentage of the response to a supermaximal dose (10 nM) of achetakinin-I, Aib analogs. Type of data set: cell-based. An excerpt: Crickets were reared as described (Clifford et al., 1977, Ann. Entomol. Soc. Am., 70:69-74) and fed a diet of turkey starter crumbs. Water was provided ad lib. Malpighian tubules were removed from 6-12-day-old adult virgin females. Single tubules were isolated in vitro as described (Coast, G. M., 1988, Physiol. Entomol., 13:381-391). After a 40-min equilibration period, the bathing fluid was changed and the rate of secretion, in picoliters per millimeter length of tubule per minute (pl/mm/min), was determined over 40 min (control rate). Thereafter, the bathing fluid was exchanged for one containing the assay material and the rate of secretion was determined over an additional 40-min period (experimental rate). Diuretic activity was calculated as the difference between control and experimental rates, and results are expressed as a percentage of the response obtained with a supermaximal dose (10 nM) of achetakinin-I assayed alongside the test analogues. All experiments were performed at room temperature (21°-24° C.) (Coast et al., 1990, ibid).

The test system of data set [5] is isolated Leucophaea maderae cockroach hindgut. The experiment in a line: Cockroach hindgut myotropic bioassay. Format: cell-based. The settings on record: for potency in the cockroach hindgut myotropic assay relative to the most potent of the achetakinins (AK-IV): comparison of threshold concentrations; for Cockroach (Leucophaea maderae) hindgut contraction threshold (pM) ± (S.D.): minimum concentration evoking observable change in contractions, Aib analogs; for threshold activities on the isolated cockroach hindgut bioassay: values in M. On the procedure: Leucophaea maderae cockroaches were taken from stock colonies maintained at 27° C. and fed dry dog food ad lib. Cockroach hindguts, free of central nervous system (CNS) tissue, were dissected, immersed in saline, and prepared for recording of myogenic activity as previously described [Holman et al., 1991, Insect Biochem., 21(1):107-112]. Threshold concentrations were determined for each analogue by adding a known quantity of peptide (dissolved in 0.5 ml bioassay saline) to the bioassay chamber containing the hindgut and observing the response on a Gould 2200S oscillograph recorder. The quantity of the peptide analogues was calculated from the values obtained for Phe in the amino acid analysis. The threshold concentration was defined as the minimum concentration of peptide in the chamber required to evoke an observable change in the frequency (50%) or amplitude of contractions (5%) within 1 min and sustained for 3 min. Threshold concentrations were obtained from five cockroach hindguts on 5 consecutive days for each peptide. Quantitative data for dose-response plots were obtained as previously described (Holman et al., 1991, ibid).

For data set [6], the system named is angiotensin converting enzyme (ACE) from the housefly Musca domestica. The data set can be described thus: ACE enzyme hydrolysis trials. As to conditions: pH 8.3, 37° C., over 120 minutes. Type of data set: in vitro ADME. On the procedure: Musca ACE (Mr, 67,000) was purified from a soluble extract of adults as described elsewhere (Cornell et al., J. Biol. Chem., in press; Lamango and Isaac, J. Biol. Chem., in press) and yielded enzyme which appeared as a single band by SDS-PAGE. Unless otherwise stated, peptides (12-750 μM, final concentration) were incubated with Musca ACE in 100 mM Tris/HCl, pH 8.3 in the presence of 10 μM ZnCl2 and 0.3M NaCl at 37° C. Reactions (15 μl) were terminated either by heating to 100° C. for 5 min or by the addition of 5 μl of 8% (v/v) TFA, followed by centrifugation (13000 g, Microcentaur) for 2 min and diluted to 100 μl with 0.1% (v/v) TFA before HPLC analysis.
HPLC analysis was performed using a Pharmacia SuperPac Pep-S column (250 mm×4 mm, internal diameter) packed with 5 μm ODS particles. The solvent system comprised elution with 5% acetonitrile in 0.1% (v/v) trifluoroacetic acid for 3 min, followed by a linear increase of the acetonitrile component from 3 to 41% in 11 min (total run time of 14 min).

The mark [7] stands for this setting: Lamango et al., Peptides, submitted.

In the case of “AFHSWG-NH2 [AK-V, A--Phe--His--Ser--Trp--Gly--NH2]”, the EC50 in data set [1] (Coast et al., 1990) is 0.018 nM. In data set [1], the “Cricket Malpighian tubule fluid secretion Maximum response (%)” value is listed as 88%. In addition, in data set [2], the “Cockroach (Leucophaea maderae) hindgut contraction threshold (pM) ± (S.D.)” value (“Cockroach … (S.D.)” for short) is 43 pM.

As to “KFFPWG-NH2 [Lys--Phe--Phe--Pro--Trp--Gly--NH2]”, the “potency in hindgut myotropic assay relative to parent or natural insect kinins” value in data set [2] was “more active than the pentapeptide core and/or the naturally occurring insect kinins”.

In the case of “SGADFYPWG-NH2 [AK-I, SGAD--Phe--Tyr--Pro--Trp--Gly--NH2]”, the EC50 in data set [1] (Coast et al., 1990) was 0.078 nM. Also, the “Cricket Malpighian tubule fluid secretion Maximum response (%)” value in data set [1] was 86%. In data set [2], the “Cockroach … (S.D.)” value is on record as 82 pM.

As for “SKYVSQK-Phe--Phe--Ser--Trp--Gly--NH2 [Cus-DP-III]”, the “hydrolysis by ACE” value in data set [3] was “hydrolyze”.

In the case of “FYPWG-NH2 [Phe--Tyr--Pro--Trp--Gly--NH2]”, in data set [1] (Coast et al., 1990), the “potency in cricket Malpighian tubule secretion assay relative to parent nonapeptide” value is “equipotent with the parent nonapeptide”. Besides, the “potency in hindgut myotropic assay relative to parent or natural insect kinins” value in data set [2] is “equipotent with the parent nonapeptide”.

Regarding “NNANVFYPWG-NH2 [Cus-DP-II, NNANV-Phe--Tyr--Pro--Trp--Gly--NH2]”, the “hydrolysis by ACE” value in data set [3] (setting [7]) is listed as “hydrolyze”.

For `CC(C)(NC(=O)[C@H](Cc1ccccc1)NC(=O)[C@H](Cc1ccccc1)NC(=O)[C@H](CCCCNC(=O)[C@@H]1CCC(=O)N1)NC(=O)[C@@H]1CCC(=O)N1)C(=O)N[C@@H](Cc1c[nH]c2ccccc12)C(=O)NCC(N)=O` [pGlu--Lys(pGlu)--Phe--Phe--Aib--Trp--Gly--NH2] (HELM PEPTIDE1{[Glp].K.F.F.[Aib].W.G.[am]}|PEPTIDE2{[Glp]}$PEPTIDE1,PEPTIDE2,2:R3-1:R2$$$V2.0), the “Cricket Malpighian tubule fluid secretion Maximum response (%)” value in data set [4] was 103%. Further, in data set [5], the “potency in the cockroach hindgut myotropic assay relative to the most potent of the achetakinins (AK-IV)” value was “three orders of magnitude less potent”, the “Cockroach … (S.D.)” value was 28,000 pM and the “threshold activities on the isolated cockroach hindgut bioassay” value (from here on “threshold activities”) was determined as 28000 pM.

Regarding “AYFSPWG-NH2 [AK-II, AY--Phe--Ser--Pro--Trp--Gly--NH2]”, in data set [1] (Coast et al., 1990), the EC50 was 0.022 nM. Moreover, the “Cricket Malpighian tubule fluid secretion Maximum response (%)” value in data set [1] is 91%. Also, in data set [2], the “Cockroach … (S.D.)” value was 48 pM.

For the compound “NFKFNPWG-NH2 [AK-IV, NFK--Phe--Asn--Pro--Trp--Gly--NH2]”, the EC50 in data set [1] (Coast et al., 1990) is 0.024 nM. Besides, the “Cricket Malpighian tubule fluid secretion Maximum response (%)” value in data set [1] is 96%. In data set [2], the “Cockroach … (S.D.)” value is 180 pM.

`CC(C)(NC(=O)[C@H](Cc1ccccc1)NC(=O)[C@@H](N)Cc1ccccc1)C(=O)N[C@@H](Cc1c[nH]c2ccccc12)C(=O)NCC(N)=O` [Phe--Phe--Aib--Trp--Gly--NH2] (HELM PEPTIDE1{F.F.[Aib].W.G.[am]}$$$$V2.0): the “potency in the Malpighian tubule assay relative to the most potent naturally occurring achetakinin (AK-IV) / endogenous insect kinins” value in data set [4] (comparison of EC50 values) is reported as “greater potency than the endogenous insect kinins”. The “Cricket Malpighian tubule fluid secretion Maximum response (%)” value in data set [4] is 99%. Further, in data set [5], the “potency in the cockroach hindgut myotropic assay relative to the most potent of the achetakinins (AK-IV)” value is “roughly half as potent”, the “Cockroach … (S.D.)” value is 100 pM and the “threshold activities” value stood at 100 pM. In data set [5] (listed as first analog), the “potency in the cockroach hindgut myotropic assay relative to the most potent of the achetakinins (AK-IV)” value is “one half as potent”. The “hydrolysis by angiotensin converting enzyme (ACE)” value in data set [6] is “complete resistance to ACE; also recorded: complete resistance to hydrolysis”.

On to “QP--Phe--His--Ser--Trp--Gly--NH2 ({QP}-FHSWG-NH2; reading uncertain; also: printed as QP--Phe--His--Ser--Trp--Gly--NH2) [Cus-DP-I]”, for which the “hydrolysis by ACE” value in data set [3] (setting [7]) is “hydrolyze”.

In the case of “DPGFSSWG-NH2 [LK-II, DPG--Phe--Ser--Ser--Trp--Gly--NH2]”, the “hydrolysis by ACE” value in data set [3] (setting [7]) is “hydrolyze”.

Regarding `CC(C)(NC(=O)[C@H](Cc1ccccc1)NC(=O)[C@H](Cc1ccccc1)NC(=O)[C@H](CCCCN)NC(=O)[C@@H]1CCC(=O)N1)C(=O)N[C@@H](Cc1c[nH]c2ccccc12)C(=O)NCC(N)=O` [pGlu--Lys--Phe--Phe--Aib--Trp--Gly--NH2] (HELM PEPTIDE1{[Glp].K.F.F.[Aib].W.G.[am]}$$$$V2.0), in data set [4], the “Cricket Malpighian tubule fluid secretion Maximum response (%)” value came to 101%. Moreover, in data set [5], the “potency in the cockroach hindgut myotropic assay relative to the most potent of the achetakinins (AK-IV)” value is “an order of magnitude more potent”, the “Cockroach … (S.D.)” value stood at 3.5 pM and the “threshold activities” value came out at 3.5 pM.

For the compound “ALPFSSWG-NH2 [AK-III, ALP--Phe--Ser--Ser--Trp--Gly--NH2]”, the EC50 in data set [1] (Coast et al., 1990) is 0.324 nM. In data set [1], the “Cricket Malpighian tubule fluid secretion Maximum response (%)” value is 108%. In addition, the “Cockroach … (S.D.)” value in data set [2] is 270 pM.
